In PubChem BioAssay (NCI):
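These data come from cells grown in 96-well plates and exposed to compound for 48 hours at five concentrations. The concentration for 50% growth inhibition is given as GI50. At the TGI there is no net growth.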

Key:
Test in all cases: inhibition of tumour cell growth, NCI panel, 48 h
[1] = test system: SN12C renal
[2] = test system: HCC-2998 colon
[3] = test system: HCT-116 colon
[4] = test system: SF-539 CNS
[5] = test system: SF-295 CNS
[6] = test system: HCT-15 colon
[7] = test system: CAKI-1 renal
[8] = test system: A549 NSCLC
[9] = test system: OVCAR-4 ovarian
[10] = test system: NCI-H23 lung
[11] = test system: MOLT-4 leukemia
[12] = test system: NCI/ADR-RES ovarian
[13] = test system: MDA-MB-231 breast
[14] = test system: NCI-H522 lung
[15] = test system: ACHN renal
[16] = test system: M14 melanoma
[17] = test system: HL-60(TB) leukemia
[18] = test system: HOP-92 NSCLC
[19] = test system: RPMI-8226 leukemia
[20] = test system: SK-MEL-2 melanoma
[21] = test system: A498 renal
[22] = test system: NCI-H460 lung
[23] = test system: HT29 colon
[24] = test system: SK-MEL-28 melanoma
[25] = test system: MALME-3M melanoma
[26] = test system: 786-0 renal
[27] = test system: SNB-75 CNS
[28] = test system: RXF 393 renal
[29] = test system: UO-31 renal
[30] = test system: SK-OV-3 ovarian
[31] = test system: CCRF-CEM leukemia
[32] = test system: NCI-H226 lung
[33] = test system: SF-268 CNS
[34] = test system: U251 CNS
[35] = test system: HOP-62 NSCLC
[36] = test system: SK-MEL-5 melanoma
[37] = test system: EKVX NSCLC
[38] = test system: SNB-19 CNS
[39] = test system: PC-3 prostate
[40] = test system: KM12 colon
[41] = test system: OVCAR-3 ovarian
[42] = test system: BT-549 breast
[43] = test system: IGROV1 ovarian
[44] = test system: DU-145 prostate
[45] = test system: UACC-257 melanoma
[46] = test system: OVCAR-5 ovarian
[47] = test system: HS 578T breast
[48] = test system: COLO 205 colon
[49] = test system: TK-10 renal
[50] = test system: K-562 leukemia
[51] = test system: UACC-62 melanoma
[52] = test system: MCF7 breast
[53] = test system: LOX IMVI melanoma
[54] = test system: SR leukemia
[55] = test system: MDA-MB-435
[56] = test system: SW-620 colon
[57] = test system: OVCAR-8 ovarian

C=C(C)[C@@H]1CC[C@]2(C(=O)OCCCC[P+](c3ccccc3)(c3ccccc3)c3ccccc3)CC[C@]3(C)[C@H](CC[C@@H]4[C@@]5(C)CC[C@H](OC(=O)C(Cl)Cl)C(C)(C)[C@@H]5CC[C@]43C)[C@@H]12
GI50 [1]: 270 nM | TGI [1]: 1.58 µM

COc1cc(CN(c2ccc(C)cc2)C2OC(=O)c3ccccc32)cc(OC)c1OC (stereo unspecified)
GI50 [2]: 877 nM | TGI [2]: > 31200 nM | GI50 [3]: 501 nM | TGI [3]: > 100 µM | GI50 [4]: 393 nM | TGI [4]: > 100000 nM | GI50 [5]: 322 nM | TGI [5]: > 100000 nM | GI50 [6]: 568 nM | TGI [6]: > 100 µM | GI50 [7]: 472 nM | TGI [7]: > 100 µM | GI50 [8]: 584 nM | TGI [8]: > 100 µM | GI50 [9]: 2930 nM | TGI [9]: > 100 µM | GI50 [10]: 427 nM | GI50 [11]: 908 nM | TGI [11]: > 100 µM | GI50 [12]: 389 nM | TGI [12]: > 100000 nM | GI50 [13]: 846 nM | TGI [13]: > 100000 nM | GI50 [14]: 470 nM | TGI [14]: 4.24 µM | GI50 [15]: 3210 nM | TGI [15]: > 100 µM | GI50 [16]: 430 nM | TGI [16]: > 100 µM | GI50 [17]: 406 nM | TGI [17]: 33.7 µM | GI50 [18]: 449 nM | TGI [18]: > 100 µM | GI50 [19]: 455 nM | TGI [19]: > 100 µM | GI50 [20]: 487 nM | TGI [20]: > 100 µM | GI50 [21]: 361 nM | TGI [21]: 4520 nM | GI50 [1]: 854 nM | TGI [1]: > 100 µM | GI50 [22]: 453 nM | TGI [22]: > 100 µM | GI50 [23]: 355 nM | TGI [23]: > 100 µM | GI50 [24]: 855 nM | TGI [24]: > 100 µM | TGI [25]: > 100 µM | GI50 [26]: 691 nM | TGI [26]: > 100 µM | GI50 [27]: 285 nM | TGI [27]: > 100000 nM | GI50 [28]: 141 nM | TGI [28]: 520 nM | GI50 [29]: 2700 nM | TGI [29]: > 100 µM | GI50 [30]: 472 nM | TGI [30]: > 57900 nM | GI50 [31]: 375 nM | TGI [31]: > 100 µM | GI50 [32]: 507 nM | TGI [32]: > 19.7 µM | GI50 [33]: 1970 nM | TGI [33]: > 100 µM | GI50 [34]: 397 nM | TGI [34]: > 100 µM | GI50 [35]: 627 nM | TGI [35]: > 67.4 µM | GI50 [36]: 271 nM | TGI [36]: 1760 nM | GI50 [37]: 647 nM | TGI [37]: > 100 µM | GI50 [38]: 689 nM | TGI [38]: > 100 µM | GI50 [39]: 432 nM | TGI [39]: > 100 µM | GI50 [40]: 445 nM | TGI [40]: > 100 µM | GI50 [41]: 328 nM | TGI [41]: 13.7 µM | GI50 [42]: 727 nM | TGI [42]: 99.3 µM | GI50 [43]: 1290 nM | TGI [43]: > 100 µM | GI50 [44]: 491 nM | TGI [44]: > 76600 nM | GI50 [45]: 3.41 µM | TGI [45]: > 100 µM | GI50 [46]: 1580 nM | TGI [46]: > 100 µM | GI50 [47]: 308 nM | TGI [47]: > 100 µM | GI50 [48]: 351 nM | TGI [48]: 1300 nM | GI50 [49]: 2.51 µM | TGI [49]: > 100 µM | GI50 [50]: 365 nM | TGI [50]: > 100 µM | GI50 [51]: 582 nM | TGI [51]: > 100 µM | GI50 [52]: 339 nM | TGI [52]: > 100 µM | GI50 [53]: 635 nM | TGI [53]: > 100 µM

NC(=O)c1ncn(CC2(CO)CCC2)n1
GI50 [27]: 21600 nM

COc1ccc(-c2n[nH]nc2-c2cc(OC)c3c(c2)OCO3)cc1
GI50 [2]: 69 nM | TGI [2]: 2400 nM | GI50 [3]: 17 nM | GI50 [4]: 15.4 nM | TGI [4]: 44.9 nM | GI50 [54]: < 10 nM | TGI [54]: 17.5 µM | GI50 [5]: < 10 nM | TGI [5]: 429 nM | GI50 [6]: < 10 nM | TGI [6]: > 36.2 µM | GI50 [7]: 23.7 nM | TGI [7]: 58.5 µM | GI50 [8]: 23.9 nM | TGI [8]: > 100 µM | GI50 [9]: 1250 nM | TGI [9]: > 100 µM | GI50 [10]: 31.4 nM | TGI [10]: 29.6 µM | GI50 [11]: 62.7 nM | TGI [11]: 5.45 µM | GI50 [12]: < 10 nM | TGI [12]: 982 nM | GI50 [13]: 40.9 nM | TGI [13]: 437 nM | GI50 [14]: < 10 nM | GI50 [15]: 64.8 nM | TGI [15]: > 100 µM | GI50 [16]: 14 nM | TGI [16]: 10.5 µM | GI50 [17]: 25.2 nM | TGI [17]: 0.336 µM | GI50 [18]: 160 nM | TGI [18]: 22.2 µM | GI50 [19]: 31.9 nM | TGI [19]: 32.5 µM | GI50 [20]: 18.4 nM | TGI [20]: 20.3 µM | GI50 [21]: < 10 nM | TGI [21]: 69.3 nM | GI50 [1]: 71 nM | TGI [1]: 55.6 µM | GI50 [22]: 14.3 nM | TGI [22]: 13.2 µM | GI50 [55]: < 10 nM | GI50 [23]: 36.5 nM | TGI [23]: 4.29 µM | GI50 [24]: 44.4 nM | TGI [24]: > 89.7 µM | GI50 [26]: 42.3 nM | TGI [26]: 28.5 µM | GI50 [27]: 12.8 nM | TGI [27]: 1720 nM | GI50 [29]: 50.5 nM | TGI [29]: 73 µM | GI50 [56]: < 11.7 nM | TGI [56]: > 100 µM | GI50 [30]: 29.4 nM | TGI [30]: 2080 nM | GI50 [31]: 26.4 nM | TGI [31]: 14.2 µM | GI50 [32]: 830 nM | TGI [32]: > 100 µM | GI50 [33]: 87 nM | TGI [33]: > 62.3 µM | GI50 [34]: 35.9 nM | TGI [34]: 15.6 µM | GI50 [35]: < 13.5 nM | TGI [35]: > 68.1 µM | GI50 [36]: 26.7 nM | TGI [36]: 899 nM | GI50 [38]: 44.1 nM | TGI [38]: > 100 µM | GI50 [39]: 38.4 nM | TGI [39]: > 100 µM | GI50 [40]: < 15 nM | TGI [40]: 8.27 µM | GI50 [41]: 10.1 nM | GI50 [42]: 84.7 nM | TGI [42]: 28.9 µM | GI50 [43]: 28.9 nM | TGI [43]: > 100 µM | GI50 [44]: 32.8 nM | TGI [44]: 1190 nM | GI50 [45]: 20.5 µM | TGI [45]: > 100 µM | GI50 [46]: 66.5 nM | TGI [46]: > 100 µM | GI50 [47]: 21.9 nM | TGI [47]: 3.72 µM | GI50 [48]: 206 nM | TGI [48]: 1170 nM | GI50 [49]: 15.7 µM | TGI [49]: > 100 µM | GI50 [50]: < 10 nM | TGI [50]: > 100 µM | GI50 [51]: < 10 nM | TGI [51]: 49.2 µM | GI50 [52]: < 10 nM | TGI [52]: > 82.3 µM | GI50 [53]: 64.9 nM | TGI [53]: 16 µM | GI50 [57]: 35 nM | TGI [57]: > 52.9 µM
